Results taken from patent US20230381157A1, “RIFABUTIN FOR THE TREATMENT OF ACINETOBACTER BAUMANNII” (University of Southern California, priority 2018, published 2023).
Converted amounts (≈) assume the structure as drawn. “And” between values parts separate entries of the source, which are not always exact repeats. Equal values may be shown once.

Columns and labels:
A. baumannii HUMC1 = assay: MIC, broth microdilution in MHII, RPMI or modified media; type: cell-based, Acinetobacter baumannii; settings: for Rifabutin MIC: clinical isolate HUMC1
S. aureus LAC = assay: microbe, parasite or virus in culture; type: cell-based; settings: Staphylococcus aureus
A. baumannii LAC-4 = type: in vivo, mouse; settings: C3H mice, 10 mg/kg/daily or 1 mg/kg for 3 days, listed as RBT
HEK293T = assay: Specificity: mammalian cell cytotoxicity / inhibition of bacteria growth (CC50/IC50)

With `CO[C@H]1/C=C/O[C@@]2(C)Oc3c(C)c(O)c4c(c3C2=O)C2=NC3(CCN(CC(C)C)CC3)NC2=C(NC(=O)/C(C)=C\C=C\[C@H](C)[C@H](O)[C@@H](C)[C@@H](O)[C@@H](C)[C@H](OC(C)=O)[C@@H]1C)C4=O` [rifabutin] as the compound, how does the MIC (A. baumannii HUMC1; Acinetobacter baumannii, HUMC1, HUMC1, 5 × RPMI) read?
Its MIC is less than 0.0625 µg/mL.

And the MIC (A. baumannii HUMC1; Acinetobacter baumannii, HUMC1, HUMC1, 10-30 kDa MHII Fraction spiked into RPMI)?
The MIC was 8 µg/mL (≈ 9.44 µM).

And the MIC (A. baumannii HUMC1; Acinetobacter baumannii, HUMC1, HUMC1, 25° C., MHII)?
The MIC was 4 µg/mL (≈ 4.72 µM).

What about the MIC (A. baumannii HUMC1; Acinetobacter baumannii, HUMC1, HUMC1, 25° C., RPMI) of the same compound?
The MIC was less than 0.06 µg/mL.

What about the MIC (A. baumannii HUMC1; Acinetobacter baumannii, HUMC1, HUMC1, <10 kDa MHII Fraction spiked into RPMI) of the same compound?
The MIC was 8 µg/mL (≈ 9.44 µM).

And the MIC (A. baumannii HUMC1; Acinetobacter baumannii, HUMC1, HUMC1, Low Salt Luria Broth)?
The MIC was 2 µg/mL.

What about the MIC (A. baumannii HUMC1; Acinetobacter baumannii, HUMC1, HUMC1, Luria Broth) of the same compound?
The MIC was 1 µg/mL (≈ 1.18 µM).

And the MIC (A. baumannii HUMC1; Acinetobacter baumannii, HUMC1, HUMC1, M9)?
Its MIC is less than 0.05 µg/mL.

What about the MIC (A. baumannii HUMC1; Acinetobacter baumannii, HUMC1, HUMC1, MHII (CAMHB)) of the same compound?
Its MIC is 4 µg/mL (≈ 4.72 µM).

What about the MIC (A. baumannii HUMC1; Acinetobacter baumannii, HUMC1, HUMC1, MHII + 200 mg/L glucose) of the same compound?
Its MIC is 2 µg/mL.

And the MIC (A. baumannii HUMC1; Acinetobacter baumannii, HUMC1, HUMC1, MHII + 2,000 mg/L glucose)?
Its MIC is 2 µg/mL.

What about the MIC (A. baumannii HUMC1; Acinetobacter baumannii, HUMC1, HUMC1, MHII + Non-Essential Amino Acid Solution (100×)) of the same compound?
Its MIC is 3.12 µg/mL.

And the MIC (A. baumannii HUMC1; Acinetobacter baumannii, HUMC1, HUMC1, No Salt Luria Broth)?
Its MIC is 1 µg/mL.

And the MIC (A. baumannii HUMC1; Acinetobacter baumannii, HUMC1, HUMC1, Non tissue culture treated 96-well plates)?
Its MIC is 1.56 µg/mL (≈ 1.84 µM).

What about the MIC (A. baumannii HUMC1; Acinetobacter baumannii, HUMC1, HUMC1, RPMI + CCCP (2 μg/mL) + Essential Amino Acids) of the same compound?
Its MIC is 1.56 µg/mL.

And the MIC (A. baumannii HUMC1; Acinetobacter baumannii, HUMC1, HUMC1, RPMI + Essential Amino Acid Solution (50×))?
The MIC was 1.56 µg/mL.

What about the MIC (A. baumannii HUMC1; Acinetobacter baumannii, HUMC1, HUMC1, RPMI + Glutamic Acid 0.5 mM) of the same compound?
The MIC was less than 0.048 µg/mL.

What about the MIC (A. baumannii HUMC1; Acinetobacter baumannii, HUMC1, HUMC1, RPMI + Glycine 0.5 mM) of the same compound?
Its MIC is less than 0.048 µg/mL.

What about the MIC (A. baumannii HUMC1; Acinetobacter baumannii, HUMC1, HUMC1, RPMI + L-Arginine 0.5 mM) of the same compound?
The MIC was less than 0.048 µg/mL.

What about the MIC (A. baumannii HUMC1; Acinetobacter baumannii, HUMC1, HUMC1, RPMI + L-Histidine 0.5 mM) of the same compound?
The MIC was 1.56 µg/mL.

What about the MIC (A. baumannii HUMC1; Acinetobacter baumannii, HUMC1, HUMC1, RPMI + L-Tryptophan 0.125 mM) of the same compound?
Its MIC is 1.56 µg/mL.

And the MIC (A. baumannii HUMC1; Acinetobacter baumannii, HUMC1, HUMC1, RPMI + Leucine 1 mM)?
Its MIC is less than 0.048 µg/mL.

And the MIC (A. baumannii HUMC1; Acinetobacter baumannii, HUMC1, HUMC1, RPMI + Non-Essential Amino Acid Solution (100×))?
The MIC was 0.781 µg/mL.

And the MIC (A. baumannii HUMC1; Acinetobacter baumannii, HUMC1, HUMC1, RPMI + Organic Layer, Proteinase K Digested)?
The MIC was 4 µg/mL.

What about the MIC (A. baumannii HUMC1; Acinetobacter baumannii, HUMC1, HUMC1, RPMI + Organic layer, Sodium Periodate Treated) of the same compound?
Its MIC is 4 µg/mL.

What about the MIC (A. baumannii HUMC1; Acinetobacter baumannii, HUMC1, HUMC1, RPMI + acetonitrile treated <10 kDa MHII fraction, Aqueous Layer) of the same compound?
The MIC was less than 0.0312 µg/mL.

And the MIC (A. baumannii HUMC1; Acinetobacter baumannii, HUMC1, HUMC1, RPMI + acetonitrile treated <10 kDa MHII fraction, Organic Layer)?
The MIC was 4 µg/mL.

And the MIC (A. baumannii HUMC1; Acinetobacter baumannii, HUMC1, HUMC1, RPMI + efflux pump inhibitor CCCP (2 μg/mL))?
The MIC was less than 0.05 µg/mL.

What about the MIC (A. baumannii HUMC1; Acinetobacter baumannii, HUMC1, HUMC1, RPMI + efflux pump inhibitor thioridazine (16 μg/mL)) of the same compound?
Its MIC is 12.5 µg/mL.

And the MIC (A. baumannii HUMC1; Acinetobacter baumannii, HUMC1, HUMC1, RPMI Supplemented with MHII (hybrid media, equal parts))?
The MIC was 8 µg/mL (≈ 9.44 µM).

And the MIC (A. baumannii HUMC1; Acinetobacter baumannii, HUMC1, HUMC1, Tissue culture treated 96-well plates)?
Its MIC is 1.56 µg/mL (≈ 1.84 µM).

And the MIC (A. baumannii HUMC1; HUMC1, 5 × RPMI, listed as RBT)?
Its MIC is 0.06 µg/mL (≈ 0.0708 µM).

What about the MIC (A. baumannii HUMC1; HUMC1, 10-30 kDa MHII Fraction spiked into RPMI, listed as RBT) of the same compound?
Its MIC is 8.00 µg/mL (≈ 9.44 µM).

What about the “difference in MICs at lower temperature” value (A. baumannii HUMC1; HUMC1, 25° C. or 30° C. compared to 37° C., MHII or RPMI) of the same compound?
Its value is “did not observe any difference”.

And the MIC (A. baumannii HUMC1; HUMC1, 25° C., MHII, listed as RBT)?
Its MIC is 4.00 µg/mL (≈ 4.72 µM).

What about the MIC (A. baumannii HUMC1; HUMC1, 25° C., RPMI, listed as RBT) of the same compound?
Its MIC is 0.05 µg/mL (≈ 0.059 µM).

What about the MIC (A. baumannii HUMC1; HUMC1, <10 kDa MHII Fraction spiked into RPMI, listed as RBT) of the same compound?
The MIC was 8 µg/mL and 8.00 µg/mL.

And the “effect of added iron on MIC” value (A. baumannii HUMC1; HUMC1, FeCl3 spiked into RPMI at 0.01, 0.10, and 0.30 μg/mL)?
The value was “did not have any effect”.

What about the MIC (A. baumannii HUMC1; HUMC1, MHII (CAMHB in b45)) of the same compound?
The MIC was 3.125 µg/mL (≈ 3.69 µM).

And the MIC (A. baumannii HUMC1; HUMC1, MHII (CAMHB in b45), listed as Rifabutin)?
Its MIC is 3.125 µg/mL and 6.25 µg/mL.

And the MIC (A. baumannii HUMC1; HUMC1, MHII (CAMHB), listed as RBT)?
The MIC was 4.00 µg/mL and 6.25 µg/mL.

And the MIC (A. baumannii HUMC1; HUMC1, RPMI)?
The MIC was 0.0156 µg/mL (≈ 0.0184 µM).

What about the MIC (A. baumannii HUMC1; HUMC1, RPMI + Glutamic Acid 0.5 mM, listed as RBT) of the same compound?
The MIC was 0.05 µg/mL.

What about the MIC (A. baumannii HUMC1; HUMC1, RPMI + Glycine 0.5 mM, listed as RBT) of the same compound?
Its MIC is 0.05 µg/mL.

And the MIC (A. baumannii HUMC1; HUMC1, RPMI + L-Arginine 0.5 mM, listed as RBT)?
Its MIC is 0.05 µg/mL.

What about the MIC (A. baumannii HUMC1; HUMC1, RPMI + Leucine 1 mM, listed as RBT) of the same compound?
The MIC was 0.05 µg/mL.

And the MIC (A. baumannii HUMC1; HUMC1, RPMI + Non-Essential Amino Acid Solution (100×), listed as RBT)?
The MIC was 0.78 µg/mL.

What about the MIC (A. baumannii HUMC1; HUMC1, RPMI + Organic Layer, Proteinase K Digested, listed as RBT) of the same compound?
The MIC was 4.00 µg/mL.

And the MIC (A. baumannii HUMC1; HUMC1, RPMI + Organic layer, Sodium Periodate Treated, listed as RBT)?
The MIC was 4.00 µg/mL.

What about the MIC (A. baumannii HUMC1; HUMC1, RPMI + acetonitrile treated <10 kDa MHII fraction, Aqueous Layer, listed as RBT) of the same compound?
Its MIC is 0.03 µg/mL.

What about the MIC (A. baumannii HUMC1; HUMC1, RPMI + acetonitrile treated <10 kDa MHII fraction, Organic Layer, listed as RBT) of the same compound?
Its MIC is 4.00 µg/mL.

What about the MIC (A. baumannii HUMC1; HUMC1, RPMI + efflux pump inhibitor CCCP (2 μg/mL), listed as RBT) of the same compound?
The MIC was 0.05 µg/mL.

What about the MIC (A. baumannii HUMC1; HUMC1, RPMI Supplemented with MHII (hybrid media, equal parts)) of the same compound?
Its MIC is 8 µg/mL (≈ 9.44 µM).

What about the MIC (A. baumannii HUMC1; HUMC1, RPMI Supplemented with MHII (hybrid media, equal parts), listed as RBT) of the same compound?
The MIC was 8.00 µg/mL (≈ 9.44 µM).

And the “fold lower MIC of RBT as compared to RIF” value (A. baumannii HUMC1; HUMC1, RPMI, listed as RBT)?
Its value is 133 fold and 200 fold.

What about the Rifabutin MIC (A. baumannii HUMC1; MHII) of the same compound?
The Rifabutin MIC was 3.12 µg/mL.

What about the Rifabutin MIC (A. baumannii HUMC1; RPMI) of the same compound?
The Rifabutin MIC was 0.0156 µg/mL.

What about the MIC (S. aureus LAC; MHII) of the same compound?
The MIC was 0.012 µg/mL (≈ 0.0142 µM).

What about the MIC (S. aureus LAC; RPMI) of the same compound?
The MIC was 0.025 µg/mL (≈ 0.0295 µM).

What about the “efficacy RBT vs RIF” value (A. baumannii LAC-4) of the same compound?
The value was “no difference in efficacy”.

And the “Specificity HEK293T (CC50/IC50)” value (HEK293T; IC50 vs A. baumannii ATCC 17978, RPMI + 50% serum)?
The value was 506006.298.

And the “Specificity HEK293T (CC50/IC50)” value (HEK293T; IC50 vs A. baumannii ATCC 17978, RPMI alone)?
The value was 1961.478.

What about the “Specificity HEK293T (CC50/IC50)” value (HEK293T; IC50 vs A. baumannii HUMC1, RPMI + 50% serum) of the same compound?
Its value is 97331.320.

What about the “Specificity HEK293T (CC50/IC50)” value (HEK293T; IC50 vs A. baumannii HUMC1, RPMI alone) of the same compound?
Its value is 33559.242.

And the “Specificity HEK293T (CC50/IC50)” value (HEK293T; top screen hits, IC50 against A. baumannii HUMC1 in 50% serum)?
The value was 148.31.
